In one data set the target is hα9α10[L7H] nAChR (Homo sapiens, UniProt Q9GZZ6+Q9UGM1, L31H). Briefly: cell-based. Format: cell-based.
Data set [1] concerns the molecule itself. Briefly: mass spectrometry before and after reduction and alkylation.

No end group written: not given here.

Sequence of hα9α10[L7H] nAChR (Q9UGM1 26-479 limits assumed, stated change not applied): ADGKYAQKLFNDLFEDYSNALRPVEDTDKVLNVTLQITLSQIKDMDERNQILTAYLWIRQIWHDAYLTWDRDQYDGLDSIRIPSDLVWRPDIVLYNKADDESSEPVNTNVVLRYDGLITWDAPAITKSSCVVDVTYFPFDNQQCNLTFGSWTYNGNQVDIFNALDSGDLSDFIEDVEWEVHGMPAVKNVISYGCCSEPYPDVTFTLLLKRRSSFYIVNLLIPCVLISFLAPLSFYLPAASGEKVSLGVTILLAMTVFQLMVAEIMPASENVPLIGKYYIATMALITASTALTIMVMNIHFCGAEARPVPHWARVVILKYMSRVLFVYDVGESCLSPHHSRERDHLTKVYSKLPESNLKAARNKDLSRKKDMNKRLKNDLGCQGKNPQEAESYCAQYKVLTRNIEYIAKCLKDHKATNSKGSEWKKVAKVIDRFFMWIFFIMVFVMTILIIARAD
Sequence of hα9α10[L7H] nAChR (Q9GZZ6 25-450 L31H limits assumed, stated change not applied): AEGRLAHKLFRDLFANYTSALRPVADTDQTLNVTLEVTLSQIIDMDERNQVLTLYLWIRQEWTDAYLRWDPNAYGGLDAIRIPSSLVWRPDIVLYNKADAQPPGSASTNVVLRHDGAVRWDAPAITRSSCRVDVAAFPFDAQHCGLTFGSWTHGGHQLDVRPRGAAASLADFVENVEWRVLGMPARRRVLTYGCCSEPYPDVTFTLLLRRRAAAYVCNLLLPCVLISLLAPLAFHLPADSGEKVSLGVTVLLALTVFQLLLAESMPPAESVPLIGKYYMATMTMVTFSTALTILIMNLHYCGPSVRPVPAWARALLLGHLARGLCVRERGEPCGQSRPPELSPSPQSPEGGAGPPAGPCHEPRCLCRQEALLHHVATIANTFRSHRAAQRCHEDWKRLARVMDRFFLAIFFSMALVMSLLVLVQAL

As for Vc1.1 [reference compound], the “effect of α10 L7H mutation on inhibitory activity (in words)” value at hα9α10[L7H] nAChR is listed as “not affected by this mutation”.

As usually defined, the stoichiometry N is the number of molecules, sites or subunits per partner or assembly. As for DVHRPCQSVRPGRVWGKCCLTRLCSTMCCARADCTCVYHTWRGHGCSCVM (ends and bridges not checked; cysteine pairing not given here) [αD-conotoxin GeXXA], in data set [1], the “stoichiometry N” value was 2.

The values above are taken from paper PMC4585798 (Scientific Reports, 2015).
